The molecules below were run against Peptidyl-prolyl cis-trans isomerase FKBP1A (Homo sapiens, UniProt P62942) (assay: FKBP12 Assay).
Description: FKBP12 assay using rapamycin analogs.

Peptidyl-prolyl cis-trans isomerase FKBP1A, sequence (P62942 whole entry): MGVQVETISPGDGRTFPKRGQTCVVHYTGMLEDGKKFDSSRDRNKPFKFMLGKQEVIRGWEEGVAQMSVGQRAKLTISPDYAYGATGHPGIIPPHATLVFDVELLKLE

Compound | EC50 [nM] | Ki [nM]
COC(=O)N[C@H]1C[C@@H]2CC[C@@H](C)[C@@](O)(O2)C(=O)C(=O)N2CCCC[C@H]2C(=O)O[C@H]([C@H](C)C[C@@H]2CC[C@@H](O)[C@H](OC)C2)CC(=O)[C@H](C)/C=C(\C)[C@@H](O)[C@@H](OC)C(=O)[C@H](C)C[C@H](C)/C=C/C=C/C=C/1C [Rapamycin C-7, analog 7b] | 2500 | 3.7
CCO[C@H]1C[C@@H]2CC[C@@H](C)[C@@](O)(O2)C(=O)C(=O)N2CCCC[C@H]2C(=O)O[C@H]([C@H](C)C[C@@H]2CC[C@@H](O)[C@H](OC)C2)CC(=O)[C@H](C)/C=C(\C)[C@@H](O)[C@@H](OC)C(=O)[C@H](C)C[C@H](C)/C=C/C=C/C=C/1C [Rapamycin C-7, analog 5b] | 200 | 4
CO[C@@H]1C[C@H](C[C@@H](C)[C@@H]2CC(=O)[C@H](C)/C=C(\C)[C@@H](O)[C@@H](OC)C(=O)[C@H](C)C[C@H](C)/C=C/C=C/C=C(\C)[C@H](c3ccco3)C[C@@H]3CC[C@@H](C)[C@@](O)(O3)C(=O)C(=O)N3CCCC[C@H]3C(=O)O2)CC[C@H]1O [Rapamycin C-7, analog 10a] | 20 | 3
COc1cc(OC)c([C@H]2C[C@@H]3CC[C@@H](C)[C@@](O)(O3)C(=O)C(=O)N3CCCC[C@H]3C(=O)O[C@H]([C@H](C)C[C@@H]3CC[C@@H](O)[C@H](OC)C3)CC(=O)[C@H](C)/C=C(\C)[C@@H](O)[C@@H](OC)C(=O)[C@H](C)C[C@H](C)/C=C/C=C/C=C/2C)c(OC)c1 [Rapamycin C-7, analog 9] | > 1000 | 7
CO[C@@H]1C[C@H](C[C@@H](C)[C@@H]2CC(=O)[C@H](C)/C=C(\C)[C@@H](O)[C@@H](OC)C(=O)[C@H](C)C[C@H](C)/C=C/C=C/C=C(\C)[C@H](OCc3ccc(Cl)cc3)C[C@@H]3CC[C@@H](C)[C@@](O)(O3)C(=O)C(=O)N3CCCC[C@H]3C(=O)O2)CC[C@H]1O [Rapamycin C-7, analog 16a] | 45 | 1
CO[C@@H]1C[C@H](C[C@@H](C)[C@@H]2CC(=O)[C@H](C)/C=C(\C)[C@@H](O)[C@@H](OC)C(=O)[C@H](C)C[C@H](C)/C=C/C=C/C=C(\C)CC[C@@H]3CC[C@@H](C)[C@@](O)(O3)C(=O)C(=O)N3CCCC[C@H]3C(=O)O2)CC[C@H]1O [Rapamycin C-7, analog 12] | 2 | 1
COC(=O)N[C@@H]1C[C@@H]2CC[C@@H](C)[C@@](O)(O2)C(=O)C(=O)N2CCCC[C@H]2C(=O)O[C@H]([C@H](C)C[C@@H]2CC[C@@H](O)[C@H](OC)C2)CC(=O)[C@H](C)/C=C(\C)[C@@H](O)[C@@H](OC)C(=O)[C@H](C)C[C@H](C)/C=C/C=C/C=C/1C [Rapamycin C-7, analog 7a] | > 10000 | 4.5
CO[C@@H]1C[C@H](C[C@@H](C)[C@@H]2CC(=O)[C@H](C)/C=C(\C)[C@@H](O)[C@@H](OC)C(=O)[C@H](C)C[C@H](C)/C=C/C=C/C=C(\C)[C@@H](c3ccc[nH]3)C[C@@H]3CC[C@@H](C)[C@@](O)(O3)C(=O)C(=O)N3CCCC[C@H]3C(=O)O2)CC[C@H]1O [Rapamycin C-7, analog 11b] | 70 | 1.5
CO[C@@H]1C[C@H](C[C@@H](C)[C@@H]2CC(=O)[C@H](C)/C=C(\C)[C@@H](O)[C@@H](OC)C(=O)[C@H](C)C[C@H](C)/C=C/C=C/C=C(\C)[C@H](OCc3ccc(N=[N+]=[N-])c(I)c3)C[C@@H]3CC[C@@H](C)[C@@](O)(O3)C(=O)C(=O)N3CCCC[C@H]3C(=O)O2)CC[C@H]1O [Rapamycin C-7, analog 17a] | 90 | 30
CO[C@@H]1C[C@H](C[C@@H](C)[C@@H]2CC(=O)[C@H](C)/C=C(\C)[C@@H](O)[C@@H](OC)C(=O)[C@H](C)C[C@H](C)/C=C/C=C/C=C(\C)[C@H](c3ccc[nH]3)C[C@@H]3CC[C@@H](C)[C@@](O)(O3)C(=O)C(=O)N3CCCC[C@H]3C(=O)O2)CC[C@H]1O [Rapamycin C-7, analog 11a] | 11 | 10
COc1ccc([C@H]2C[C@@H]3CC[C@@H](C)[C@@](O)(O3)C(=O)C(=O)N3CCCC[C@H]3C(=O)O[C@H]([C@H](C)C[C@@H]3CC[C@@H](O)[C@H](OC)C3)CC(=O)[C@H](C)/C=C(\C)[C@@H](O)[C@@H](OC)C(=O)[C@H](C)C[C@H](C)/C=C/C=C/C=C/2C)c(OC)c1 [Rapamycin C-7, analog 8b] | > 1000 | 38
COc1ccc([C@@H]2C[C@@H]3CC[C@@H](C)[C@@](O)(O3)C(=O)C(=O)N3CCCC[C@H]3C(=O)O[C@H]([C@H](C)C[C@@H]3CC[C@@H](O)[C@H](OC)C3)CC(=O)[C@H](C)/C=C(\C)[C@@H](O)[C@@H](OC)C(=O)[C@H](C)C[C@H](C)/C=C/C=C/C=C/2C)c(OC)c1 [Rapamycin C-7, analog 8a] | 1000 | 9
CO[C@@H]1C[C@H](C[C@@H](C)[C@@H]2CC(=O)[C@H](C)/C=C(\C)[C@@H](O)[C@@H](OC)C(=O)[C@H](C)C[C@H](C)/C=C/C=C/C=C(\C)[C@H](SC)C[C@@H]3CC[C@@H](C)[C@@](O)(O3)C(=O)C(=O)N3CCCC[C@H]3C(=O)O2)CC[C@H]1O [Rapamycin C-7, analog 6a] | 4 | 1
CO[C@@H]1C[C@H](C[C@@H](C)[C@@H]2CC(=O)[C@H](C)/C=C(\C)[C@@H](O)[C@@H](OC)C(=O)[C@H](C)C[C@H](C)/C=C/C=C/C=C(\C)[C@H](OCc3ccccc3)C[C@@H]3CC[C@@H](C)[C@@](O)(O3)C(=O)C(=O)N3CCCC[C@H]3C(=O)O2)CC[C@H]1O [Rapamycin C-7, analog 14a] | 6 | 5
CO[C@@H]1C[C@H](C[C@@H](C)[C@@H]2CC(=O)[C@H](C)/C=C(\C)[C@@H](O)[C@@H](OC)C(=O)[C@H](C)C[C@H](C)/C=C/C=C/C=C(\C)[C@@H](c3ccco3)C[C@@H]3CC[C@@H](C)[C@@](O)(O3)C(=O)C(=O)N3CCCC[C@H]3C(=O)O2)CC[C@H]1O [Rapamycin C-7, analog 10b] | 20 | 6
CO[C@@H]1C[C@H](C[C@@H](C)[C@@H]2CC(=O)[C@H](C)/C=C(\C)[C@@H](O)[C@@H](OC)C(=O)[C@H](C)C[C@H](C)/C=C/C=C/C=C(\C)[C@H](OCc3cccc([N+](=O)[O-])c3)C[C@@H]3CC[C@@H](C)[C@@](O)(O3)C(=O)C(=O)N3CCCC[C@H]3C(=O)O2)CC[C@H]1O [Rapamycin C-7, analog 15a] | 50 | 7
CCO[C@@H]1C[C@@H]2CC[C@@H](C)[C@@](O)(O2)C(=O)C(=O)N2CCCC[C@H]2C(=O)O[C@H]([C@H](C)C[C@@H]2CC[C@@H](O)[C@H](OC)C2)CC(=O)[C@H](C)/C=C(\C)[C@@H](O)[C@@H](OC)C(=O)[C@H](C)C[C@H](C)/C=C/C=C/C=C/1C [Rapamycin C-7, analog 5a] | 10 | 3.5
CO[C@@H]1C[C@H](C[C@@H](C)[C@@H]2CC(=O)[C@H](C)/C=C(\C)[C@@H](O)[C@@H](OC)C(=O)[C@H](C)C[C@H](C)C=CC=CC=C(C)C(=O)C[C@@H]3CC[C@@H](C)[C@@](O)(O3)C(=O)C(=O)N3CCCC[C@H]3C(=O)O2)CC[C@H]1O [Rapamycin C-7, analog 13] | 300 | 29
CO[C@@H]1C[C@H](C[C@@H](C)[C@@H]2CC(=O)[C@H](C)/C=C(\C)[C@@H](O)[C@@H](OC)C(=O)[C@H](C)C[C@H](C)/C=C/C=C/C=C(\C)[C@@H](SC)C[C@@H]3CC[C@@H](C)[C@@](O)(O3)C(=O)C(=O)N3CCCC[C@H]3C(=O)O2)CC[C@H]1O [Rapamycin C-7, analog 6b] | 4 | 1

From BindingDB's records for doi:10.1016/1074-5521(95)90264-3 (Smithkline Beecham Pharmaceuticals, 1995)
